Results from US11485751B2, “Apramycin derivatives” (WAYNE STATE UNIVERSITY, priority 2017, dated 2022).
≈ marks a conversion by molar mass, not a printed value.

Columns and labels:
bacterial ribosomes = test: in-vitro translation assay, bacterial ribosomes; type: biochemical
Outline: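 Cell-free translation; IC50 read-out. Mito = human chimeric ribosomes; cytosolic = rabbit reticulocyte ribosomes; bacterial ribosomes run in the same assay format.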

[1] = system: AG212, Escherichia coli ATCC25922; test: MIC reference strain AG212; type: cell-based; conditions: Escherichia coli; reference strain ATCC25922; read-out: MIC AG212 E. coli
Outline: (§1)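 The method determines minimal inhibitory concentrations using the standard CLSI microdilution procedure in liquid medium.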

[2] = system: Engineered E. coli pH425 rmtB; test: Activity against G1405-methylated 16S-rRNA, E. coli pH425 rmtB; type: cell-based
Outline: (§2)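 Strains are tested by broth microdilution under the CLSI M07-A10 procedure. The lowest inhibitory concentration is recorded as the MIC.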

[3] = system: Engineered E. coli pH424 armA; test: Activity against G1405-methylated 16S-rRNA, E. coli pH424 armA; type: cell-based
Outline: as §2

[4] = system: human mitochondrial ribosomes; test: in-vitro translation assay, human mitochondrial (human chimeric) ribosomes; type: biochemical
Outline: (§3)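 Reported values are IC50s for inhibition of in-vitro translation. For the mitochondrial target, human chimeric ribosomes were used. For the cytosolic target, rabbit reticulocyte ribosomes were used.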

AG031 P. aer. APH(3′)-II = test: Antibacterial activity, clinical isolate AG031; type: cell-based; parameters: unit not given here
Outline: (§4)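 Susceptibility was tested per CLSI aerobic dilution protocol using microbroth format, with the MIC taken as the end point.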

[5] = system: Engineered E. coli AG103 armA; test: Activity against G1405-methylated 16S-rRNA, E. coli AG103 armA; type: cell-based
Text: (§5) Minimal inhibitory concentrations (MIC) have been determined by broth microdilution assays (CLSI. Methods for Dilution Antimicrobial Susceptibility Tests for Bacteria That Grow Aerobically; Approved Standard—Tenth Edition. CLSI document M07-A10. Wayne, Pa.: Clinical and Laboratory Standards Institute; 2015.).

AG163 E. coli APH(3′)-I = test: Antibacterial activity, clinical isolate AG163; type: cell-based
Text: as §5
Table 4 and 5 show the antibacterial activity of the compounds of the invention against bacterial reference strains (table 4) and against representative clinical isolates (table 5).

[6] = system: AG220, Pseudomonas aeruginosa ATCC27853; test: MIC reference strain AG220; type: cell-based; conditions: Pseudomonas aeruginosa, ATCC27853, reference strain ATCC27853; read-out: MIC AG220 P. aeruginosa
Outline: as §1

[7] = system: AG033 P. aer. APH(3′)-II AAC(6′)-I; test: Antibacterial activity, clinical isolate AG033; type: cell-based; parameters: unit not given here
Outline: as §4

[8] = system: AG042 MRSA AAC(6′)-I ANT(4′)-I APH(2′); test: Antibacterial activity, clinical isolate AG042; type: cell-based; parameters: unit not given here
Outline: as §4

AG038 MRSA = test: Antibacterial activity, clinical isolate AG038; type: cell-based; parameters: unit not given here
Outline: as §4

[9] = system: clinical isolates carrying APH(3′)-II; test: MIC broth microdilution, APH(3′)-II; type: cell-based; conditions: clinical isolates, IMM Univ. Zurich; APH(3′)-II; read-out: MIC APH(3′)-II
Text: as §5
(§6) Minimal inhibitory concentrations (MICs, […]) against clinical isolates from Institute of Medical Microbiology, Univ. Zurich, and the IC50 values for bacterial, human mitochondrial and human cytosolic ribosomes are indicated.

[10] = system: human cytosolic ribosomes; test: in-vitro translation assay, human cytosolic ribosomes; type: biochemical
Outline: as §3

AG032 P. aer. APH(3′)-II = test: Antibacterial activity, clinical isolate AG032; type: cell-based; parameters: unit not given here
Outline: as §4

[11] = system: AG039 MRSA AAC(6′)-I ANT(4′)-I; test: Antibacterial activity, clinical isolate AG039; type: cell-based
Outline: as §4

[12] = system: clinical isolates carrying APH(3′)-VI; test: MIC broth microdilution, APH(3′)-VI; type: cell-based; conditions: IMM Univ. Zurich
Text: as §5, §6

ATCC19977 M. abcessus = test: MIC reference strain ATCC19977; type: cell-based; conditions: read-out: MIC ATCC19977 M. abcessus
Outline: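 Compounds are serially diluted in liquid medium in microplates, bacteria are added, and the lowest concentration preventing growth is recorded as the MIC (CLSI procedure).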

AG003 E. coli AAC(3)-II = test: Antibacterial activity, clinical isolate AG003; type: cell-based
Outline: as §4

[13] = system: Engineered E. coli pH426 rmtC; test: Activity against G1405-methylated 16S-rRNA, E. coli pH426 rmtC; type: cell-based
Outline: as §2

[14] = system: clinical isolates carrying APH(3′)-I; test: MIC broth microdilution, APH(3′)-I; type: cell-based; conditions: IMM Univ. Zurich
Text: as §5, §6

[15] = system: AG215, Klebsiella pneumonia; test: MIC reference strain AG215; type: cell-based; conditions: Klebsiella pneumoniae, reference strain; read-out: MIC AG215 K. pneumonia
Outline: as §1

AG173 E. coli AAC(3)-IV = test: Antibacterial activity, clinical isolate AG173; type: cell-based
Outline: as §4

AG001 E. coli WT = test: Antibacterial activity, clinical isolate AG001; type: cell-based; parameters: unit not given here
Outline: as §4

[16] = system: Engineered E. coli pH427 rmtF; test: Activity against G1405-methylated 16S-rRNA, E. coli pH427 rmtF; type: cell-based
Outline: as §2

AG055 E. coli WT = test: Antibacterial activity, clinical isolate AG055; type: cell-based; parameters: unit not given here
Outline: as §4

[17] = system: clinical isolates carrying APH(3′)-III; test: MIC broth microdilution, APH(3′)-III; type: cell-based; conditions: IMM Univ. Zurich
Text: as §5, §6

[18] = system: SZ380, Mycobacterium smegmatis; test: MIC reference strain SZ380; type: cell-based; conditions: Mycolicibacterium smegmatis, reference strain; read-out: MIC SZ380 M. smegmatis
Outline: as §1

[19] = system: AG225, Acinetobacter baumannii pittii; test: MIC reference strain AG225; type: cell-based; conditions: Acinetobacter baumannii, reference strain; read-out: MIC AG225 A. baumannii
Outline: as §1

[20] = system: Engineered E. coli pH430 WT; test: Activity, engineered E. coli pH430 WT; type: cell-based; conditions: wild type
Outline: as §2

[21] = system: AG290, Enterobacter cloacae; test: MIC reference strain AG290; type: cell-based; conditions: Enterobacter cloacae; reference strain; read-out: MIC AG290 E. cloacae
Outline: as §1

[22] = system: clinical isolates carrying AAC(3)-IV; test: MIC broth microdilution, AAC(3)-IV; type: cell-based; conditions: clinical isolates, IMM Univ. Zurich; AAC(3)-IV; read-out: MIC AAC(3)-IV
Outline: (§7)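 Clinical isolates supplied by the Zurich Institute of Medical Microbiology were tested for MIC (μg/ml) using CLSI M07-A10 broth microdilution.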

WT clinical isolates = test: MIC broth microdilution, WT; type: cell-based; conditions: read-out: MIC WT, clinical isolates, IMM Univ. Zurich; wild type
Outline: as §7

[23] = system: K. pneum. AG269 AAC(3)-II AAC(6′)-I rmtB; test: Activity against G1405-methylated 16S-rRNA, clinical isolate AG269; type: cell-based
Text: as §5

[24] = system: Enterob. AG302 AAC(3)-II AAC(6′)-I rmtC; test: Activity against G1405-methylated 16S-rRNA, clinical isolate AG302; type: cell-based
Text: as §5

[25] = system: E. coli AG153 AAC(3)-II APH(3′)-II rmtB; test: Activity against G1405-methylated 16S-rRNA, clinical isolate AG153; type: cell-based
Text: as §5

[26] = system: A baum. AG227 APH(3′)-I armA; test: Activity against G1405-methylated 16S-rRNA, clinical isolate AG227; type: cell-based
Text: as §5

Row | Compound | IC50 (bacterial ribosomes) | MIC [1] | Activity E. coli pH425 rmtB [2] | Activity E. coli pH424 armA [3] | IC50 [4] | Antibacterial activity AG031 P. aer. APH(3′)-II (AG031 P. aer. APH(3′)-II) | Activity E. coli AG103 armA [5] | MIC [6] | Antibacterial activity AG038 MRSA (AG038 MRSA) | MIC [9] | IC50 [10] | MIC [12] | MIC [14] | MIC [15] | Antibacterial activity AG001 E. coli WT (AG001 E. coli WT) | MIC [17] | MIC [19] | Activity E. coli pH430 WT [20] | MIC [21] | MIC [22] | further results
1 | CNC1C(OC2OC(CO)C(N)C(O)C2O)OC2CC(N)C(OC3C(N)CC(N)C(O)C3OC3OC(CO)C(OCCO)C3O)OC2C1O [DC178, 5-O-β-[3′″-O-(2-Hydroxyethyl)-D-ribofuranosyl] apramycin] | 0.22 µM | 8 µg/mL | 8 | 2 | 647 µM | >32 | 2 | > 64 µg/mL | 16-32 | 8 µg/mL (≈ 11.2 µM) | > 500 µM | 16 µg/mL (≈ 22.4 µM) | > 64 µg/mL | 4 µg/mL | 32 | 2 µg/mL (≈ 2.79 µM) | 16 µg/mL | 8 | 8 µg/mL | > 32 µg/mL | Antibacterial activity AG163 E. coli APH(3′)-I (AG163 E. coli APH(3′)-I): 8; Antibacterial activity AG033 P. aer. APH(3′)-II AAC(6′)-I [7]: >32; Antibacterial activity AG042 MRSA AAC(6′)-I ANT(4′)-I APH(2′) [8]: 32; Antibacterial activity AG032 P. aer. APH(3′)-II (AG032 P. aer. APH(3′)-II): >32; Antibacterial activity AG039 MRSA AAC(6′)-I ANT(4′)-I [11]: 32; MIC (ATCC19977 M. abcessus): 32 µg/mL (≈ 44.7 µM); Antibacterial activity AG003 E. coli AAC(3)-II (AG003 E. coli AAC(3)-II): 16; Activity E. coli pH426 rmtC [13]: 8; Antibacterial activity AG173 E. coli AAC(3)-IV (AG173 E. coli AAC(3)-IV): 32-64; Activity E. coli pH427 rmtF [16]: 8; Antibacterial activity AG055 E. coli WT (AG055 E. coli WT): 16; MIC [18]: 2 µg/mL
2 | CNC1C(O)C2O[C@H](O[C@@H]3C(N)C[C@@H](N)C(O)[C@H]3OC3O[C@H](CN)[C@@H](O)[C@H]3O)C(N)C[C@@H]2O[C@@H]1O[C@H]1OC(CO)[C@@H](N)[C@H](O)C1O (stereo partly drawn) [DC201] | 0.12 µM | 4 µg/mL |  | 2 | 113 µM | 16 |  | 4 to 8 µg/mL | 2-4 | 4 µg/mL (≈ 5.96 µM) | 81 µM | 4 µg/mL (≈ 5.96 µM) | 2 to 4 µg/mL (≈ 2.98 to 5.96 µM) | 2 µg/mL | 4 | 1 µg/mL (≈ 1.49 µM) | 4 to 8 µg/mL | 8 | 2 µg/mL | 16 µg/mL (≈ 23.9 µM) | MIC (WT clinical isolates): 8 µg/mL (≈ 11.9 µM); Activity K. pneum. AG269 AAC(3)-II AAC(6′)-I rmtB [23]: 4; MIC (ATCC19977 M. abcessus): 1 to 2 µg/mL (≈ 1.49 to 2.98 µM); Activity Enterob. AG302 AAC(3)-II AAC(6′)-I rmtC [24]: 4; Activity E. coli AG153 AAC(3)-II APH(3′)-II rmtB [25]: 8; MIC [18]: 0.25 µg/mL; Activity A baum. AG227 APH(3′)-I armA [26]: 8-16
3 | CNC1C(OC2OC(CO)C(N)C(O)C2O)OC2CC(N)C(OC3C(N)CC(N)C(O)C3OC3OCC(O)C3O)OC2C1O (stereo not drawn) [DC146, 5-O-β-D—(Erythrofuranosyl) apramycin] | 0.09 µM | 16 µg/mL | 4 | 4 | 215 µM | 64 | 1 | 32 µg/mL | 16-32 | 4 µg/mL (≈ 6.23 µM) | 321 µM | 8 µg/mL (≈ 12.5 µM) | 4 µg/mL (≈ 6.23 µM) | 4 µg/mL | 16 | 1 µg/mL (≈ 1.56 µM) | 8 µg/mL | 8 | 4 µg/mL | 32 µg/mL (≈ 49.9 µM) | Antibacterial activity AG163 E. coli APH(3′)-I (AG163 E. coli APH(3′)-I): 8; Antibacterial activity AG033 P. aer. APH(3′)-II AAC(6′)-I [7]: 64-128; Antibacterial activity AG042 MRSA AAC(6′)-I ANT(4′)-I APH(2′) [8]: 16; Antibacterial activity AG032 P. aer. APH(3′)-II (AG032 P. aer. APH(3′)-II): 64; Antibacterial activity AG039 MRSA AAC(6′)-I ANT(4′)-I [11]: 16-32; Antibacterial activity AG003 E. coli AAC(3)-II (AG003 E. coli AAC(3)-II): 16; Activity E. coli pH426 rmtC [13]: 8; Antibacterial activity AG173 E. coli AAC(3)-IV (AG173 E. coli AAC(3)-IV): 128; Activity E. coli pH427 rmtF [16]: 4; Antibacterial activity AG055 E. coli WT (AG055 E. coli WT): 16
